Assay results as given in patent publication US12503687B2, “Therapeutic bacteriophage compositions” (priority 2017, dated 2025).
Several values for one entry are separate records, joined by “and”; a condition that tells them apart may be missing. Equal entries are not always repeated.

Test system: Staphylococcus aureus strain UNT144-3
Assay: S. aureus pneumonia model (neutropenic murine lung infection)
Format: in vivo, mice
Settings: 100 mg/kg SC at 2 and 6 hrs post-infection; CFU assessed 24 hr
Experimental: The sensitivity of two S. aureus clinical isolates, UNT109-3 (NRS234, native valve endocarditis) and UNT144-3, that have been previously utilized in animal models of infection, was evaluated vs. the individual phage and the 4-phage panel. […] The virulence of the two strains was then evaluated in the murine lung infection model. Female Hsd:ICR(CD-1) mice (Harlan Laboratories, Houston, TX) were administered 150 and 100 mg/kg cyclophosphamide on day −4 and day −1 prior to infection to render them neutropenic. Groups of 5 mice were then anaesthetized by intraperitoneal (IP) injection of 0.15 mL of a mixture of ketamine HCl (100 mg/kg body weight) plus xylazine (10 mg/kg body weight). Once anaesthetized, mice were infected intranasally by placing drops on the external nares and allowing inhalation of the 50 μl inoculum. Twenty-four hours after infection, mice were euthanized by CO2 inhalation and lungs processed for bacterial titers. Bacterial counts were enumerated on Brain Heart Infusion agar (Difco™ Laboratories)+0.5% activated charcoal (Sigma-Aldrich) plates for ease of recovering and detecting S. aureus (Barr, J. G., et al., J. Clin. Pathol. (1987) 40:372-376). […]
Three phage panel treatment groups were evaluated for efficacy: 2×10^10 PFU/mL per phage, 2×10^9 PFU/mL per phage, and 2×10^8 PFU/mL per phage. […]

`CN[C@H](CC(C)C)C(=O)N[C@H]1C(=O)N[C@@H](CC(N)=O)C(=O)N[C@H]2C(=O)N[C@H]3C(=O)N[C@H](C(=O)N[C@H](C(=O)O)c4cc(O)cc(O)c4-c4cc3ccc4O)[C@H](O)c3ccc(c(Cl)c3)Oc3cc2cc(c3O[C@@H]2O[C@H](CO)[C@@H](O)[C@H](O)[C@H]2O[C@H]2C[C@](C)(N)[C@H](O)[C@H](C)O2)Oc2ccc(cc2Cl)[C@H]1O` [Vancomycin] was tested, and the “Mean ± SD log10 CFU/Lung Pair” value was 5.55 log10 CFU/Lung Pair and 5.55 ± 1.1 log10 CFU/Lung Pair.
